In ChEMBL document CHEMBL3885881, “DrugMatrix”:

Organism: Rattus norvegicus
Experiment: DrugMatrix - Regimen: Daily Repeat
Assay type: toxicity, organism-based, Sprague-Dawley
Design: regimen Daily Repeat, gender Male, age 6-8 weeks
Settings: in vivo, po, route oral GAVAGE, vehicle .5 % CMC; for ALANINE AMINOTRANSFERASE / ALBUMIN / ALKALINE PHOSPHATASE / ASPARTATE AMINOTRANSFERASE / BLOOD UREA NITROGEN / CHLORIDE / CHOLESTEROL / CREATINE PHOSPHOKINASE / CREATININE / GLUCOSE / LACTATE DEHYDROGENASE / LIPASE / PHOSPHORUS / POTASSIUM / SODIUM / TOTAL BILIRUBIN / TOTAL PROTEIN / URIC ACID: tissue Plasma
[1] = 80 mg/kg, 2184 h, tissue Blood, dose level Low, time 91 day
[2] = 80 mg/kg, 2184 h, dose level Low, time 91 day
[3] = 80 mg/kg, […], tissue Blood, dose level Low, time 28 day
[4] = 80 mg/kg, […], dose level Low, time 28 day
[5] = 150 mg/kg, 72 h, tissue Blood, dose level M1, time 3 day
[6] = 150 mg/kg, 72 h, dose level M1, time 3 day
[7] = 150 mg/kg, 120 h, tissue Blood, dose level M1, time 5 day
[8] = 150 mg/kg, 120 h, dose level M1, time 5 day
[9] = 1500 mg/kg, 72 h, tissue Blood, dose level High, time 3 day
[10] = 1500 mg/kg, 72 h, dose level High, time 3 day
[11] = 1500 mg/kg, 120 h, tissue Blood, dose level High, time 5 day
[12] = 1500 mg/kg, 120 h, dose level High, time 5 day

O=c1cc(-c2ccccc2)oc2ccc3ccccc3c12 [BETA-NAPHTHOFLAVONE]
EOSINOPHIL [1]: 0.76% | ERYTHROCYTE COUNT [1]: 8.94 x10E6/uL | HEMATOCRIT [1]: 47.57% | HEMOGLOBIN [1]: 15.76 G/DL | LEUKOCYTE COUNT [1]: 15.13 x10E3/uL | LYMPHOCYTE [1]: 74.26% | MEAN CORPUSCULAR HEMOGLOBIN [1]: 17.63 pg | MEAN CORPUSCULAR HEMOGLOBIN CONCENTRATION [1]: 33.13 G/DL | MEAN CORPUSCULAR VOLUME [1]: 53.23 fL | MONOCYTE [1]: 1.9% | NEUTROPHIL [1]: 20.01% | PLATELET COUNT [1]: 1247.3 x10E3/uL | ALANINE AMINOTRANSFERASE [2]: 27.5 u/L | ALBUMIN [2]: 3.68 G/DL | ALKALINE PHOSPHATASE [2]: 82.2 u/L | ASPARTATE AMINOTRANSFERASE [2]: 64.9 u/L | BLOOD UREA NITROGEN [2]: 15.3 mg/dL | CHLORIDE [2]: 104 MEQ/L | CHOLESTEROL [2]: 68.4 mg/dL | CREATINE PHOSPHOKINASE [2]: 81.3 u/L | CREATININE [2]: 0.51 mg/dL | GLUCOSE [2]: 148 mg/dL | LACTATE DEHYDROGENASE [2]: 43.4 u/L | LIPASE [2]: 20.6 u/L | PHOSPHORUS [2]: 8.24 mg/dL | POTASSIUM [2]: 6.5 MEQ/L | SODIUM [2]: 150 MEQ/L | TOTAL BILIRUBIN [2]: 0.21 mg/dL | TOTAL PROTEIN [2]: 7.08 G/DL | URIC ACID [2]: 0.93 mg/dL | ABSOLUTE BASOPHIL [3]: 190 cells/µL | ABSOLUTE EOSINOPHIL [3]: 60 cells/µL | ABSOLUTE LYMPHOCYTE [3]: 13200 cells/µL | ABSOLUTE MONOCYTE [3]: 300 cells/µL | ABSOLUTE SEGMENTED NEUTROPHIL [3]: 1910 cells/µL | BASOPHIL [3]: 1.18% | EOSINOPHIL [3]: 0.36% | ERYTHROCYTE COUNT [3]: 8.59 x10E6/uL | HEMATOCRIT [3]: 48.64% | HEMOGLOBIN [3]: 16.08 G/DL | LEUKOCYTE COUNT [3]: 15.78 x10E3/uL | LYMPHOCYTE [3]: 83.98% | MEAN CORPUSCULAR HEMOGLOBIN [3]: 18.78 pg | MEAN CORPUSCULAR HEMOGLOBIN CONCENTRATION [3]: 33.1 G/DL | MEAN CORPUSCULAR VOLUME [3]: 56.7 fL | MONOCYTE [3]: 1.92% | NEUTROPHIL [3]: 12% | PLATELET COUNT [3]: 1252.8 x10E3/uL | ALANINE AMINOTRANSFERASE [4]: 30.4 u/L | ALBUMIN [4]: 3.64 G/DL | ALKALINE PHOSPHATASE [4]: 126 u/L | ASPARTATE AMINOTRANSFERASE [4]: 71.4 u/L | BLOOD UREA NITROGEN [4]: 13.4 mg/dL | CHLORIDE [4]: 103.4 MEQ/L | CHOLESTEROL [4]: 69.8 mg/dL | CREATINE PHOSPHOKINASE [4]: 116.2 u/L | CREATININE [4]: 0.48 mg/dL | GLUCOSE [4]: 156.6 mg/dL | LACTATE DEHYDROGENASE [4]: 80.8 u/L | LIPASE [4]: 13 u/L | PHOSPHORUS [4]: 9.74 mg/dL | POTASSIUM [4]: 6.34 MEQ/L | SODIUM [4]: 149.8 MEQ/L | TOTAL BILIRUBIN [4]: 0.24 mg/dL | TOTAL PROTEIN [4]: 6.58 G/DL | URIC ACID [4]: 0.58 mg/dL | BASOPHIL [5]: 0.43% | EOSINOPHIL [5]: 0.3% | ERYTHROCYTE COUNT [5]: 6.69 x10E6/uL | HEMATOCRIT [5]: 42.2% | HEMOGLOBIN [5]: 13.2 G/DL | LEUKOCYTE COUNT [5]: 11.3 x10E3/uL | LYMPHOCYTE [5]: 85.87% | MEAN CORPUSCULAR HEMOGLOBIN [5]: 19.73 pg | MEAN CORPUSCULAR HEMOGLOBIN CONCENTRATION [5]: 31.23 G/DL | MEAN CORPUSCULAR VOLUME [5]: 63.13 fL | MONOCYTE [5]: 2.17% | NEUTROPHIL [5]: 10.17% | PLATELET COUNT [5]: 1377.33 x10E3/uL | ALANINE AMINOTRANSFERASE [6]: 41.33 u/L | ALBUMIN [6]: 3.57 G/DL | ALKALINE PHOSPHATASE [6]: 337.33 u/L | ASPARTATE AMINOTRANSFERASE [6]: 68.33 u/L | BLOOD UREA NITROGEN [6]: 13 mg/dL | CHLORIDE [6]: 103.33 MEQ/L | CHOLESTEROL [6]: 100 mg/dL | CREATINE PHOSPHOKINASE [6]: 163.67 u/L | CREATININE [6]: 0.4 mg/dL | GLUCOSE [6]: 179 mg/dL | PHOSPHORUS [6]: 12.8 mg/dL | POTASSIUM [6]: 6.93 MEQ/L | SODIUM [6]: 148.33 MEQ/L | TOTAL BILIRUBIN [6]: 0.4 mg/dL | TOTAL PROTEIN [6]: 5.97 G/DL | BASOPHIL [7]: 0.37% | EOSINOPHIL [7]: 0.43% | ERYTHROCYTE COUNT [7]: 7.05 x10E6/uL | HEMATOCRIT [7]: 42.83% | HEMOGLOBIN [7]: 13.57 G/DL | LEUKOCYTE COUNT [7]: 14.17 x10E3/uL | LYMPHOCYTE [7]: 88.67% | MEAN CORPUSCULAR HEMOGLOBIN [7]: 19.27 pg | MEAN CORPUSCULAR HEMOGLOBIN CONCENTRATION [7]: 31.67 G/DL | MEAN CORPUSCULAR VOLUME [7]: 60.87 fL | MONOCYTE [7]: 1.77% | NEUTROPHIL [7]: 7.87% | PLATELET COUNT [7]: 1364.33 x10E3/uL | ALANINE AMINOTRANSFERASE [8]: 42.67 u/L | ALBUMIN [8]: 3.6 G/DL | ALKALINE PHOSPHATASE [8]: 295 u/L | ASPARTATE AMINOTRANSFERASE [8]: 69.33 u/L | BLOOD UREA NITROGEN [8]: 14 mg/dL | CHLORIDE [8]: 104 MEQ/L | CHOLESTEROL [8]: 99 mg/dL | CREATINE PHOSPHOKINASE [8]: 224.33 u/L | CREATININE [8]: 0.47 mg/dL | GLUCOSE [8]: 169 mg/dL | PHOSPHORUS [8]: 12.43 mg/dL | POTASSIUM [8]: 6.6 MEQ/L | SODIUM [8]: 147 MEQ/L | TOTAL BILIRUBIN [8]: 0.57 mg/dL | TOTAL PROTEIN [8]: 6 G/DL | BASOPHIL [9]: 0.4% | EOSINOPHIL [9]: 0.7% | ERYTHROCYTE COUNT [9]: 7.11 x10E6/uL | HEMATOCRIT [9]: 44.17% | HEMOGLOBIN [9]: 13.9 G/DL | LEUKOCYTE COUNT [9]: 12.26 x10E3/uL | LYMPHOCYTE [9]: 82.2% | MEAN CORPUSCULAR HEMOGLOBIN [9]: 19.53 pg | MEAN CORPUSCULAR HEMOGLOBIN CONCENTRATION [9]: 31.47 G/DL | MEAN CORPUSCULAR VOLUME [9]: 62.13 fL | MONOCYTE [9]: 2.5% | NEUTROPHIL [9]: 13.1% | PLATELET COUNT [9]: 1171.33 x10E3/uL | ALANINE AMINOTRANSFERASE [10]: 37 u/L | ALBUMIN [10]: 3.53 G/DL | ALKALINE PHOSPHATASE [10]: 263.67 u/L | ASPARTATE AMINOTRANSFERASE [10]: 61.67 u/L | BLOOD UREA NITROGEN [10]: 11.67 mg/dL | CHLORIDE [10]: 103.33 MEQ/L | CHOLESTEROL [10]: 122.33 mg/dL | CREATINE PHOSPHOKINASE [10]: 219.67 u/L | CREATININE [10]: 0.4 mg/dL | GLUCOSE [10]: 175.67 mg/dL | PHOSPHORUS [10]: 13.27 mg/dL | POTASSIUM [10]: 7 MEQ/L | SODIUM [10]: 145.33 MEQ/L | TOTAL BILIRUBIN [10]: 0.47 mg/dL | TOTAL PROTEIN [10]: 5.9 G/DL | BASOPHIL [11]: 0.43% | EOSINOPHIL [11]: 0.17% | ERYTHROCYTE COUNT [11]: 6.8 x10E6/uL | HEMATOCRIT [11]: 42.73% | HEMOGLOBIN [11]: 13.33 G/DL | LEUKOCYTE COUNT [11]: 11.39 x10E3/uL | LYMPHOCYTE [11]: 85.5% | MEAN CORPUSCULAR HEMOGLOBIN [11]: 19.63 pg | MEAN CORPUSCULAR HEMOGLOBIN CONCENTRATION [11]: 31.3 G/DL | MEAN CORPUSCULAR VOLUME [11]: 62.77 fL | MONOCYTE [11]: 1.77% | NEUTROPHIL [11]: 11.33% | PLATELET COUNT [11]: 1352 x10E3/uL | ALANINE AMINOTRANSFERASE [12]: 37.67 u/L | ALBUMIN [12]: 3.6 G/DL | ALKALINE PHOSPHATASE [12]: 289 u/L | ASPARTATE AMINOTRANSFERASE [12]: 66.67 u/L | BLOOD UREA NITROGEN [12]: 12.67 mg/dL | CHLORIDE [12]: 102.33 MEQ/L | CHOLESTEROL [12]: 101.33 mg/dL | CREATINE PHOSPHOKINASE [12]: 145 u/L | CREATININE [12]: 0.33 mg/dL | GLUCOSE [12]: 186 mg/dL | PHOSPHORUS [12]: 13.3 mg/dL | POTASSIUM [12]: 6.73 MEQ/L | SODIUM [12]: 147.67 MEQ/L | TOTAL BILIRUBIN [12]: 0.27 mg/dL | TOTAL PROTEIN [12]: 6.1 G/DL
